# Reference: ChEMBL document CHEMBL1909046, “DrugMatrix in vitro pharmacology data”
# pIC50, pKi: −log10 of the molar value.
# How the values were obtained:
# [1] = biological target: Beta-3 adrenergic receptor (Homo sapiens, UniProt P13945); assay: DRUGMATRIX: Adrenergic beta3 radioligand binding (ligand: [125I] Cyanopindolol); format: cell membranes, HEK293, Membrane; conditions: hek293; Not Active = under 50% inhibition at 10 µM
# [2] = biological target: T1, C-X-C chemokine receptor type 1 (Homo sapiens, UniProt P25024); further: in other assays of this panel Not Active means under 50% inhibition at 10 µM
# T1 sequence (P25024 whole entry): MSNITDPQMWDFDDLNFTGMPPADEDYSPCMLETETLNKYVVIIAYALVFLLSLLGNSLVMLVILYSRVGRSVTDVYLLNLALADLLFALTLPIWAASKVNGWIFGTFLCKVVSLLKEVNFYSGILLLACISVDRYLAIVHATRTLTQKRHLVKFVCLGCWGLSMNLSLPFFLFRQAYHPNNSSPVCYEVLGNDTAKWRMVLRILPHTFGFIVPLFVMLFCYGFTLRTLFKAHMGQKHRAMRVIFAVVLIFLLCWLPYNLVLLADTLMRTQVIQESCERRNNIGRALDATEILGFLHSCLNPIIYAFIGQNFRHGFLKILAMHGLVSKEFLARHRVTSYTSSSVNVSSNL
# [3] = biological target: T2, Endothelin-1 receptor (Homo sapiens, UniProt P25101); format: cell membranes, Membrane; conditions: cho-k1; further: in other assays of this panel Not Active means under 50% inhibition at 10 µM
# T2 sequence (P25101 whole entry): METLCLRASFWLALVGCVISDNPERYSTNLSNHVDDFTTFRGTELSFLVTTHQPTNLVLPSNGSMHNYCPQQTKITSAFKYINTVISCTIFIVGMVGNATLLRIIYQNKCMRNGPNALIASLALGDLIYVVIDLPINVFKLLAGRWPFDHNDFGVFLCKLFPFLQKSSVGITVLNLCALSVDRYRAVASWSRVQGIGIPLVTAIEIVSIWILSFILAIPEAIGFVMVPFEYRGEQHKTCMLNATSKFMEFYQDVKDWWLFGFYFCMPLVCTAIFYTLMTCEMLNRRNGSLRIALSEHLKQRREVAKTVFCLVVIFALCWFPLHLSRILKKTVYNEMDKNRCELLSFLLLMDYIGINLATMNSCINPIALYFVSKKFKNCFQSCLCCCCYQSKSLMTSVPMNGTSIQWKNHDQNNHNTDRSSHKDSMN
# [4] = DRUGMATRIX: Imidazoline I2, Central radioligand binding (ligand: [3H] Idazoxan); format: cell membranes, Rattus norvegicus, Wistar, Cerebral cortex, Membrane; conditions: Not Active = under 50% inhibition at 10 µM
# [5] = biological target: T3, Angiotensin-converting enzyme (Oryctolagus cuniculus, UniProt P12822); format: tissue-based, Lung;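 further: enzymatic inhibition of angiotensin-converting enzyme measured with FAPGG as the substrate; in other assays of this panel Not Active means under 50% inhibition at 10 µM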
# T3 sequence (P12822 whole entry): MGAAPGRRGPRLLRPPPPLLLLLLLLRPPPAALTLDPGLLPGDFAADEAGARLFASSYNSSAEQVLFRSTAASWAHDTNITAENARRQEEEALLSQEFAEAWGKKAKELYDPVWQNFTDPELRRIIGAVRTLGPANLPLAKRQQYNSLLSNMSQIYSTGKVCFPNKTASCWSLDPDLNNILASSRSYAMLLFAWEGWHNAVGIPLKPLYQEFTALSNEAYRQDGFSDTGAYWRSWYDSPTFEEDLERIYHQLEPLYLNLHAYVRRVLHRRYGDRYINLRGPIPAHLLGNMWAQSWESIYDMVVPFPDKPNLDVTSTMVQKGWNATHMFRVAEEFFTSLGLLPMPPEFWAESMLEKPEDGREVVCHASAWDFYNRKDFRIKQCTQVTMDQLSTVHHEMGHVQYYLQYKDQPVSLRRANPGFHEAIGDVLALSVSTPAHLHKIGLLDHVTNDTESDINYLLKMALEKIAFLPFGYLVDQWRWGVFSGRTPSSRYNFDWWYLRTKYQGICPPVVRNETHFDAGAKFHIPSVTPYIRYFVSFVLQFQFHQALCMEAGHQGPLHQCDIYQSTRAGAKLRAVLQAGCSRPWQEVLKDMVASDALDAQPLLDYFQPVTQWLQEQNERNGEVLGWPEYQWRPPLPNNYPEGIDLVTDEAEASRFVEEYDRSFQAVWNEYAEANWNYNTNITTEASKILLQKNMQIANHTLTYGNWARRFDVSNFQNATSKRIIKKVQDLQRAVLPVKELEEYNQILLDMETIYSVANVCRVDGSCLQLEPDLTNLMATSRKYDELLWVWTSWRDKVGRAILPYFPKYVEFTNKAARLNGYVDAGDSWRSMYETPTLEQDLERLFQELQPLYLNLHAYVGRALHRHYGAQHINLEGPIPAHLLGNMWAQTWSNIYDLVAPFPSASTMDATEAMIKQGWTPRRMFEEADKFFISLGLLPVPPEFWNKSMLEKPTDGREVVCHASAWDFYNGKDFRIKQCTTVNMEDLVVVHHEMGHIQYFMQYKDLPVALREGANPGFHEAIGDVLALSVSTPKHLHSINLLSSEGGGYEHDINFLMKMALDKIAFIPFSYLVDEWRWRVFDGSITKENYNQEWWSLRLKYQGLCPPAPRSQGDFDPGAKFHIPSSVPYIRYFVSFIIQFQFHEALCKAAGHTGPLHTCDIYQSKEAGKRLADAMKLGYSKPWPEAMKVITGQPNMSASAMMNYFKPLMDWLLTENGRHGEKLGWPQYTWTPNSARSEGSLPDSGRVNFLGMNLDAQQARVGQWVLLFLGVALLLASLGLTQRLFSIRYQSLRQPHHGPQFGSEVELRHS
# [6] = biological target: T4, Adenosine receptor A1 (Homo sapiens, UniProt P30542); format: cell membranes, CHO, Membrane; conditions: cho;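 further: radioligand binding assay at the adenosine A1 receptor, with DPCPX serving as the labelled ligand; in other assays of this panel Not Active means under 50% inhibition at 10 µM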
# T4 sequence (P30542 whole entry): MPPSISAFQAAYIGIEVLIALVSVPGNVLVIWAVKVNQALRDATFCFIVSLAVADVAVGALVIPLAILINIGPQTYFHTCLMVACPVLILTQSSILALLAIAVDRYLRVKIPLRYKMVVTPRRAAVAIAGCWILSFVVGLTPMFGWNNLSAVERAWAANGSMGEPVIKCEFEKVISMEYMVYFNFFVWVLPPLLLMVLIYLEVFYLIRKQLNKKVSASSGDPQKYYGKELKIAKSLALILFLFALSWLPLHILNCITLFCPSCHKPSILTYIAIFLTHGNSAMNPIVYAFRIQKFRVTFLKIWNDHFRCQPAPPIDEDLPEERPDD
# [7] = biological target: T5, Adenosine receptor A3 (Homo sapiens, UniProt P0DMS8); format: cell membranes, CHO-K1, Membrane; conditions: cho-k1
# T5 sequence (P0DMS8 whole entry): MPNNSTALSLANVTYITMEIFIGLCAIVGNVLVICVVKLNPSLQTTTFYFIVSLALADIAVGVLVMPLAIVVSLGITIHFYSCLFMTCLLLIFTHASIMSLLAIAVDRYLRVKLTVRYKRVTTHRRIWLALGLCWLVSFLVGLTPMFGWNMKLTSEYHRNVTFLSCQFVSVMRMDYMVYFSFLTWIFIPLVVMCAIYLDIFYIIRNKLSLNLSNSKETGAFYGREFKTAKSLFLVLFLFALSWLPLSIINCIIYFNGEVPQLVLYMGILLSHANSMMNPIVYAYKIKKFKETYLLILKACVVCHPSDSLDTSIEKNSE
# Chain of Beta-3 adrenergic receptor (P13945 whole entry): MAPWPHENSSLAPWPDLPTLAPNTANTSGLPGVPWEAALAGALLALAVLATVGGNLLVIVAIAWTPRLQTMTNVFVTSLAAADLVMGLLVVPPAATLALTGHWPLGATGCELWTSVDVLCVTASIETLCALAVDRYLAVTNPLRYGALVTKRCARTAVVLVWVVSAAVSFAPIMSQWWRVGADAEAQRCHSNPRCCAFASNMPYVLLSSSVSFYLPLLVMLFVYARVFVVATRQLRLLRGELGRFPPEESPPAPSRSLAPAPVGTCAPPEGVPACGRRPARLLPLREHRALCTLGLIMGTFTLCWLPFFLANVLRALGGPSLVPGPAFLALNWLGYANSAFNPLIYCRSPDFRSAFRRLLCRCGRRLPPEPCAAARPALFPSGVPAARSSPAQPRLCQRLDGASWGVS
Compound,IC50 [1],IC50 [2],IC50 [3],IC50 [4],Ki [4],IC50 [5],IC50 [6],IC50 [7],pIC50 ([4]; read-out: IC50),pKi ([4]; read-out: Ki),Ki [1],Ki [2],Ki [3],Ki [5],Ki [6],Ki [7]
O=C(Oc1ccccc1C(=O)O)c1ccccc1O [SALSALATE],Not Active,Not Active,Not Active,Not Active,Not Active,Not Active,Not Active,Not Active,,,,,,,,
NC(=O)N1C(=O)/C(=C(\O)c2cccs2)c2cc(Cl)ccc21 [TENIDAP],Not Active,Not Active,Not Active,Not Active,Not Active,Not Active,Not Active,Not Active,,,,,,,,
O=C1C(CC[S+]([O-])c2ccccc2)C(=O)N(c2ccccc2)N1c1ccccc1 (stereo not given) [SULFINPYRAZONE],Not Active,Not Active,Not Active,Not Active,Not Active,Not Active,Not Active,Not Active,,,,,,,,
C[C@H]1C[C@@H]2[C@H]([C@@H](O)C[C@@]3(C)[C@H]2CC[C@]3(O)C(=O)CO)[C@@]2(C)C=CC(=O)C=C12 [METHYLPREDNISOLONE],Not Active,Not Active,Not Active,Not Active,Not Active,Not Active,Not Active,Not Active,,,,,,,,
N#Cc1ccc(C(c2ccc(C#N)cc2)n2cncn2)cc1 [LETROZOLE],Not Active,Not Active,Not Active,Not Active,Not Active,Not Active,Not Active,Not Active,,,,,,,,
COc1cc2nc(N3CCN(C(=O)C4CCCO4)CC3)nc(N)c2cc1OC (stereo not given) [TERAZOSIN],Not Active,Not Active,Not Active,,,Not Active,Not Active,Not Active,5.90,6.07,,,,,,
O=C(O)c1cn(-c2ccc(F)cc2)c2cc(N3CCNCC3)c(F)cc2c1=O [SARAFLOXACIN],Not Active,Not Active,Not Active,Not Active,Not Active,Not Active,Not Active,Not Active,,,,,,,,
CO[C@H]1/C=C/O[C@@]2(C)Oc3c(C)c(O)c4c(O)c(c(/C=N/N5CCN(C6CCCC6)CC5)c(O)c4c3C2=O)NC(=O)/C(C)=C\C=C\[C@H](C)[C@H](O)[C@@H](C)[C@@H](O)[C@@H](C)[C@H](OC(C)=O)[C@@H]1C [RIFAPENTINE],Not Active,Not Active,Not Active,Not Active,Not Active,Not Active,Not Active,Not Active,,,,,,,,
CCCCOc1cc(CC2CNC(=O)N2)ccc1OC (stereo not given) [RO-201724],Not Active,Not Active,Not Active,Not Active,Not Active,Not Active,Not Active,Not Active,,,,,,,,
CC[C@@H](C(=O)[C@@H](C)[C@@H](O)[C@H](C)[C@@H]1O[C@@H]([C@@H](CC)C(=O)O)CC[C@@H]1C)[C@H]1O[C@]2(C=C[C@@H](O)[C@]3(CC[C@@](C)([C@H]4CC[C@](O)(CC)[C@H](C)O4)O3)O2)[C@H](C)C[C@@H]1C [SALINOMYCIN],Not Active,Not Active,Not Active,Not Active,Not Active,Not Active,Not Active,Not Active,,,,,,,,
CCCCNc1ccc(C(=O)OCCN(C)C)cc1 [TETRACAINE],Not Active,Not Active,Not Active,Not Active,Not Active,Not Active,Not Active,Not Active,,,,,,,,
CCN(CC)CCNC(=O)c1cc(S(C)(=O)=O)ccc1OC [TIAPRIDE],Not Active,Not Active,Not Active,Not Active,Not Active,Not Active,Not Active,Not Active,,,,,,,,
MANGANESE CHLORIDE ANHYDROUS,Not Active,Not Active,Not Active,Not Active,Not Active,Not Active,Not Active,Not Active,,,Not Active,Not Active,Not Active,Not Active,Not Active,Not Active
O.O.O.O.O.O.[Cl-].[Cl-].[Sr+2] [STRONTIUM CHLORIDE HEXAHYDRATE],Not Active,Not Active,Not Active,Not Active,Not Active,Not Active,Not Active,Not Active,,,,,,,,
CNC1(c2ccccc2Cl)CCCCC1=O (stereo not given) [KETAMINE],Not Active,Not Active,Not Active,Not Active,Not Active,Not Active,Not Active,Not Active,,,,,,,,
CCN(CC)CC(=O)Nc1c(C)cccc1C [LIDOCAINE],Not Active,Not Active,Not Active,Not Active,Not Active,Not Active,Not Active,Not Active,,,,,,,,
Nc1cc(N2CCCCC2)nc(N)[n+]1[O-] [MINOXIDIL],Not Active,Not Active,Not Active,Not Active,Not Active,Not Active,Not Active,Not Active,,,,,,,,
COc1c2occc2cc2ccc(=O)oc12 [METHOXSALEN],Not Active,Not Active,Not Active,Not Active,Not Active,Not Active,Not Active,Not Active,,,,,,,,
